# Test system: amyloid oligomers (AOs)
# Experiment: Amyloid oligomer ELISA (A11) in murine cells (primary MEFs, NIH3T3)
# Type: cell-based, mouse
# Settings: different concentrations of Bortezomib, 24 hrs
# Description: FIGS. 5A-Y show MEK and proteasome inhibition provoke protein aggregation and amyloidogenesis. (A-B) WM115 cells treated with 20 nM AZD6244, 100 nM Bortezomib, or both for 24 hr were stained with Lys48-specific ubiquitin antibodies. Arrowheads mark ubiquitin-positive aggregates. Scale bar: 10 μm. Amounts of aggregates per cell were quantitated using ImageJ (median, n≥100, ANOVA). (C-F) Following transfection with polyQ79 plasmids alone or with both polyQ79 and HSF1^S326D plasmids for one day, HEK293T cells were treated with inhibitors as described in (A-B). Cells were either analyzed for aggregate size or stained with 10 μM ThT. (G) Treated tumor cell lines were stained with 10 μM ThT. Geometric means were used to calculate fold changes in ThT fluorescence intensity and the log 2(FC) values were presented as a heat map. […] Following treatments, AOs were quantitated by ELISA using A11 antibodies (mean±SD, n=3, ANOVA). (I) Intrinsic AOs were detected in human tumor cell lines (mean±SD, n=3, ANOVA). […] Amyloids were quantitated by ELISA (mean±SD, n=3, Student's t-test). […] AF formation was monitored by ThT binding (mean±SD, n=3, ANOVA). […] Amyloids were quantitated (mean±SD, n=3, Student's t-test). […] Viable cells were quantitated by CellTiter® blue (mean±SD, n=6, Student's t-test). […] Viable cells were quantitated (mean±SD, n=6, ANOVA). […]
# This figure is related to FIG. 5. […] (C) Quantitation of protein aggregate size. […]
smiles,measurement,value
"CC(C)C[C@H](NC(=O)[C@H](Cc1ccccc1)NC(=O)c1cnccn1)B(O)O [Bortezomib, bortezomib]",endogenous amyloid oligomers in NIH3T3 cells,capable of inducing amyloidogenesis

# From US20180369203A1, “METHODS OF TREATING CANCER BY ADMINISTERING A MEK INHIBITOR IN COMBINATION WITH A PROTEASOME INHIBITOR” (The Jackson Laboratory, priority 2015, published 2018)
